The source of these data is patent US8445501B2, “Substituted 7-carboxamido-pyrrolo[3,2-d]pyrimidines” (Takeda GmbH, priority 2008, dated 2013).

The target in the experiment is T1, human PDE5 (Homo sapiens, UniProt O76074).
T1 construct: from tissue; host or cells: platelets from fresh blood of human donors (lysate, 10,000 g supernatant)
Put plainly: Inhibition of the type 5 phosphodiesterase (PDE5) activity, modified SPA test with platelet lysate. The following applies: PDE5 from human platelet lysate, 0.5 μM cGMP. It is filed as biochemical. Here is the method:
Method for Measuring Inhibition of the Type 5 Phosphodiesterase (PDE5) Activity:
As a source for human PDE5, platelets are used. For that purpose, 150 ml fresh blood from human donors anticoagulated with citrate [final concentration 0.3% (w/v)] is centrifuged at 200 g for 10 min to obtain the so-called platelet-rich-plasma (PRP) as a supernatant. 1/10 volume of ACD solution (85 mM Na3-citrate, 111 mM D-glucose, 71 mM citric acid, pH 4.4) is added to 9/10 volume of PRP. After centrifugation (1,400 g, 10 min) the cell pellet is resuspended in 3 ml homogenization buffer (NaCl 140 mM, KCl 3.8 mM, EGTA (ethylene glycol tetraacetic acid) 1 mM, MgCl2 1 mM, Tris-HCl 20 mM, beta-mercaptoethanol 1 mM, pH 8.2) plus protease-inhibitor mix giving rise to the final concentrations of 0.5 mM Pefablock (Roche), 10 μM Leupeptin, 5 μM Trypsininhibitor, 2 mM Benzamidin and 10 μM Pepstatin A. The suspension is sonified and thereafter centrifuged for 15 min at 10,000 g. The resulting supernatant (platelet lysate) is used for enzymatic testings.
PDE5A1 activity is inhibited by the compounds of the invention in a modified SPA (scintillation proximity assay) test, supplied by Amersham Biosciences (see procedural instructions “phosphodiesterase [3H]cAMP SPA enzyme assay, code TRKQ 7090”), carried out in 96-well microtitre plates (MTP's). The test volume is 100 μl and contains 20 mM Tris buffer (pH 7.4), 0.1 mg of BSA (bovine serum albumin)/ml, 5 mM Mg^2+, 1 μM motapizone, 10 nM PDE2 inhibitor 2-(3,4-dimethoxybenzyl)-7-[(1R,2R)-2-hydroxy-1-(2-phenylethyl)propyl]-5-methylimidazo[5,1-f][1,2,4]triazin-4(3H)-one, 0.5 μM cGMP (cyclic guanosine monophosphate) (including about 50,000 cpm of [3H]cGMP as a tracer), 1 μl of the respective compound dilution in dimethylsulfoxide (DMSO) and sufficient PDE5-containing platelet lysat (10,000×g supernatant, see above) to ensure that 10-20 wt % of the cGMP is converted under the said experimental conditions. […] After a preincubation of 5 min at 37° C., the reaction is started by adding the substrate (cGMP) and the assay is incubated for a further 15 min; after that, it is stopped by adding SPA beads (50 μl). In accordance with the manufacturer's instructions, the SPA beads had previously been resuspended in water, but are then diluted 1:3 (v/v) in water; the diluted solution also contains 3 mM […] (IBMX) to ensure a complete PDE activity stop. After the beads have been sedimented (>30 min), the MTP's are analyzed in commercially available luminescence detection de-vices. The corresponding IC50 values of the compounds for the inhibition of PDE activity are deter-mined from the concentration-effect curves by means of non-linear regression.
On to `COCC(=O)N[C@H]1CC[C@H](NC(=O)c2c[nH]c3c(-c4ccccc4OCC4CC4)ncnc23)CC1` [Example 91, trans-4-(2-Cyclopropylmethoxy-phenyl)-5H-pyrrolo[3,2-d]pyrimidine-7-carboxylic acid [4-(2-methoxy-acetylamino)-cyclohexyl]-amide], for which the IC50 is 6.31 nM. `CCC(=O)N1CCCC(CNC(=O)c2c[nH]c3c(-c4c(OCC5CC5)ccc5c4OCO5)ncnc23)C1` (centres unmarked) [Example 29, 4-(5-Cyclopropylmethoxy-benzo[1,3]dioxol-4-yl)-5H-pyrrolo[3,2-d]pyrimidine-7-carboxylic acid (1-propionyl-piperidin-3-ylmethyl)-amide] gave an IC50 of 0.275 nM. Take `O=C(NCC1CN(C(=O)CO)CCO1)c1c[nH]c2c(-c3c(OCC4CC4)ccc4c3OCO4)ncnc12` (centres unmarked) [Example 193, 4-(5-Cyclopropylmethoxy-benzo[1,3]dioxol-4-yl)-5H-pyrrolo[3,2-d]pyrimidine-7-carboxylic acid [4-(2-hydroxy-acetyl)morpholin-2-ylmethyl]-amide]: the concentration for half-maximal inhibition (IC50) is 1.07 nM. The compound `C[C@H](O)C(=O)N1CCC[C@H](NC(=O)c2c[nH]c3c(-c4c(OCC5CC5)ccc5c4OCO5)ncnc23)C1` [Example 197, 4-(5-Cyclopropylmethoxy-benzo[1,3]dioxol-4-yl)-5H-pyrrolo[3,2-d]pyrimidine-7-carboxylic acid [(S)-1-((S)-2-hydroxy-propanoyl)piperidin-3-yl]-amide] gave an IC50 of 0.851 nM. Take `CC(=O)N1CCC(CNC(=O)c2c[nH]c3c(-c4c(OCC5CC5)ccc5c4OCO5)ncnc23)CC1` [Example 24, 4-(5-Cyclopropylmethoxy-benzo[1,3]dioxol-4-yl)-5H-pyrrolo[3,2-d]pyrimidine-7-carboxylic acid (1-acetyl-piperidin-4-ylmethyl)-amide]: it took 0.302 nM to reach half-maximal inhibition (IC50). As to `COCC(=O)N1CCC(NC(=O)c2c[nH]c3c(-c4c(OCC5CC5)ccc5c4OCO5)ncnc23)CC1` [Example 3, 4-(5-Cyclopropylmethoxy-benzo[1,3]dioxol-4-yl)-5H-pyrrolo[3,2-d]pyrimidine-7-carboxylic acid [1-(2-methoxy-acetyl)piperidin-4-yl]-amide], the half-inhibitory concentration (IC50) is 0.398 nM. As to `COc1ccc(OCC2CC2)c(-c2ncnc3c(C(=O)N[C@H]4CC[C@H](NC(C)=O)CC4)c[nH]c23)c1` [Example 63, trans-4-(2-Cyclopropylmethoxy-5-methoxy-phenyl)-5H-pyrrolo[3,2-d]pyrimidine-7-carboxylic acid (4-acetylamino-cyclohexyl)-amide], 0.912 nM corresponded to half-maximal inhibition (IC50).

In the case of `COCC(=O)N1CCC(NC(=O)c2c[nH]c3c(-c4cc(F)ccc4OCC4CC4)ncnc23)CC1` [Example 86, 4-(2-Cyclopropylmethoxy-5-fluoro-phenyl)-5H-pyrrolo[3,2-d]pyrimidine-7-carboxylic acid [1-(2-methoxy-acetyl)piperidin-4-yl]-amide], half-maximal inhibition (IC50) required 3.98 nM. For the compound `C[C@H](O)C(=O)N1CCC(NC(=O)c2c[nH]c3c(-c4ccccc4OCC4CC4)ncnc23)CC1` [Example 227, 4-(2-Cyclopropylmethoxy-phenyl)-5H-pyrrolo[3,2-d]pyrimidine-7-carboxylic acid [1-((S)-2-hydroxy-propionyl)-piperidin-4-yl]-amide], the IC50 is 14.1 nM.

For the compound `CCC(=O)N1CCC[C@@H](NC(=O)c2c[nH]c3c(-c4cc(F)c(OC)cc4OCC4CC4)ncnc23)C1` [Example 111, 4-(2-Cyclopropylmethoxy-5-fluoro-4-methoxy-phenyl)-5H-pyrrolo[3,2-d]pyrimidine-7-carboxylic acid ((R)-1-propionyl-piperidin-3-yl)-amide], the IC50 is 0.105 nM. Compared with the last compound, the IC50 is about 130-fold lower.

`CC(=O)N1CCC(NC(=O)c2c[nH]c3c(-c4ccccc4OCC4CC4)ncnc23)CC1` [Example 94, 4-(2-Cyclopropylmethoxy-phenyl)-5H-pyrrolo[3,2-d]pyrimidine-7-carboxylic acid (1-acetyl-piperidin-4-yl)-amide]: the 50% inhibitory concentration (IC50) is 8.71 nM. Consider `O=C(N[C@H]1CC[C@H](C(=O)NC2CC2)CC1)c1c[nH]c2c(-c3cc(F)ccc3OCC3CC3)ncnc12` [Example 273, trans-4-(2-Cyclopropylmethoxy-5-fluoro-phenyl)-5H-pyrrolo[3,2-d]pyrimidine-7-carboxylic acid (4-cyclopropylcarbamoyl-cyclohexyl)-amide], for which half-maximal inhibition (IC50) required 2.19 nM. In turn, `O=C(N[C@H]1CCN(C(=O)C2CC2)C1)c1c[nH]c2c(-c3c(OCC4CC4)ccc4c3OCO4)ncnc12` [Example 20, 4-(5-Cyclopropylmethoxy-benzo[1,3]dioxol-4-yl)-5H-pyrrolo[3,2-d]pyrimidine-7-carboxylic acid [(S)-1-(1-cyclopropyl-methanoyl)-pyrrolidin-3-yl]amide] gave a half-maximal inhibitory concentration (IC50) of 0.537 nM. Against the preceding compound, the IC50 is about 4.1-fold lower. Same read-out and setting: the same measure for `CCOC(=O)N1CC[C@@H](NC(=O)c2c[nH]c3c(-c4c(OCC)ccc5c4OCO5)ncnc23)C1` [Example 137, (R)-3-{[4-(5-Ethoxy-benzo[1,3]dioxol-4-yl)-5H-pyrrolo[3,2-d]pyrimidine-7-carbonyl]-amino}-pyrrolidine-1-carboxylic acid ethyl ester]: 2.24 nM. `COCCOc1ccc2c(c1-c1ncnc3c(C(=O)N[C@H]4CC[C@@H](NC(=O)C5CC5)CC4)c[nH]c13)OCO2` [Example 165, cis-4-[5-(2-Methoxy-ethoxy)-benzo[1,3]dioxol-4-yl]-5H-pyrrolo[3,2-d]pyrimidine-7-carboxylic acid [4-(cyclopropanecarbonyl-amino)-cyclohexyl]-amide] had an IC50 of 5.89 nM.

Take `COCCOc1cc(OC)ccc1-c1ncnc2c(C(=O)NC3CCN(C(=O)C4(O)CC4)CC3)c[nH]c12` [Example 259, 4-[4-Methoxy-2-(2-methoxy-ethoxy)-phenyl]-5H-pyrrolo[3,2-d]pyrimidine-7-carboxylic acid [1-(1-hydroxy-cyclopropanecarbonyl)-piperidin-4-yl]-amide]: the 50% inhibitory concentration (IC50) is 8.51 nM. Regarding `COc1ccc(-c2ncnc3c(C(=O)NC4CCN(C(=O)C5CC5)CC4)c[nH]c23)c(OCC2CC2)c1` [Example 60, 4-(2-Cyclopropylmethoxy-4-methoxy-phenyl)-5H-pyrrolo[3,2-d]pyrimidine-7-carboxylic acid [1-(1-cyclopropyl-methanoyl)-piperidin-4-yl]-amide], inhibition was half-maximal at 0.263 nM (IC50). As for `O=C(NCC1CCN(C(=O)C2CC2)CC1)c1c[nH]c2c(-c3c(OCC4CC4)ccc4c3OCO4)ncnc12` [Example 25, 4-(5-Cyclopropylmethoxy-benzo[1,3]dioxol-4-yl)-5H-pyrrolo[3,2-d]pyrimidine-7-carboxylic acid [1-(1-cyclopropyl-methanoyl)-piperidin-4-ylmethyl]-amide], inhibition was half-maximal at 0.24 nM (IC50).

As to “4-(5-Cyclopropylmethoxy-benzo[1,3]dioxol-4-yl)-5H-pyrrolo[3,2-d]pyrimidine-7-carboxylic acid ((R)-1-propionyl-piperidin-3-yl)-amide [Example 47]”, the “-log IC50 (mol/l)” value is recorded as 9.64. Turning to `COCC(=O)N1CCC[C@@H](NC(=O)c2c[nH]c3c(-c4cc(OC)c(F)cc4OCC4CC4)ncnc23)C1` [Example 102, 4-(2-Cyclopropylmethoxy-4-fluoro-5-methoxy-phenyl)-5H-pyrrolo[3,2-d]pyrimidine-7-carboxylic acid [(R)-1-(2-methoxy-acetyl)piperidin-3-yl]-amide], the half-maximal inhibitory concentration (IC50) was 0.115 nM.

Usually IC50 stands for the concentration that gives 50% inhibition.
